Values quoted from earlier work in patent publication US20120207744A1, “REPROGRAMMING COMPOSITIONS AND METHODS OF USING THE SAME” (priority 2009, published 2012).
Counter-ions that a name gives are not always drawn. Values belong to the molecule of their own block, whether it stands above or below them.

Experiments:
[1] = system: mouse embryonic fibroblasts; settings: small-molecule combination BIX-01294 and BayK8644
ROCK1/ROCK2 = settings: inhibits by competing with ATP; Ishizaki et al. 2000
ESCs = settings: cyclic activation of Wnt/β-catenin signaling in ESCs
Oct-3/4-GFP = Oct-3/4-GFP as a reporter
[2] = system: primary human fibroblasts; settings: Oct-3/4 and Sox-2, without c-Myc or Klf-4
ES-cell = settings: repression of MEK/ERK, in culture
human ESCs = settings: both appear equally effective in facilitating clonal growth
Klf-4 promoter = settings: transient transfection, 2622-bp mouse Klf-4 promoter

Molecule: COc1cc2nc(N3CCCN(C)CC3)nc(NC3CCN(Cc4ccccc4)CC3)c2cc1OC [BIX-01294]
- reprogramming of Oct-3/4/Klf-4 transduced cells [1]: enables reprogramming

- IC50 (ROCK1/ROCK2): 800 nM
Molecule: C[C@@H](N)[C@H]1CC[C@H](C(=O)Nc2ccncc2)CC1 [Y-27632, (+)-(R)-trans-4-(1-aminoethyl)-N-(4-pyridyl)cyclohexanecarboxamide dihydrochloride]

Molecule: enterostatin
- effect on KLF4 gene expression (GT1-7 cells; GT1-7 cells treated with the peptide): inhibited KLF4 gene expression

Molecule: COC(=O)C1=C(C)NC(C)=C([N+](=O)[O-])C1c1ccccc1C(F)(F)F (stereo not drawn) [BayK8644]
- reprogramming of Oct-3/4/Klf-4 transduced cells [1]: enables reprogramming

Molecule: N#CC(=C(/N)Sc1ccccc1N)/C(C#N)=C(\N)Sc1ccccc1N [U0126]
- effect on enterostatin-induced inhibition of KLF4 gene expression (GT1-7 cells; GT1-7 cells, ERK inhibitor): blocked

Molecule: O=C1Nc2cc(Br)ccc2/C1=C1/Nc2ccccc2/C1=N\O [6-bromoindirubin-3′-oxime]
- ability of ESCs to reprogram somatic cells after fusion (ESCs): strikingly enhances

Molecule: CCCC(CCC)C(=O)O [valproic acid]
- improvement of reprogramming efficiency (Oct-3/4-GFP): more than 100 fold
- reprogramming with only two factors [2]: enables reprogramming of primary human fibroblasts

Molecule: COc1cccc(-c2cc(=O)c3ccccc3o2)c1N [PD098059]
- effect on differentiation and ES-cell self-renewal (ES-cell): inhibits differentiation and maintains ES-cell self-renewal in culture

Molecule: Cc1cncc2cccc(S(=O)(=O)N3CCCNC[C@@H]3C)c12.Cl.Cl [H-1152, (S)-(+)-2-methyl-1-[(4-methyl-5-isoquinolinyl)sulfonyl]homopiperazine dihydrochloride]
- working concentration for facilitating clonal growth, relative to HA-100 (human ESCs): ten times lower working concentrations than HA-100

B1: Wnt3a: Wnt protein activating Wnt/β-catenin signaling (protein, UniProt P56704 19-352, looked up)
Protein Wnt-3a: SYPIWWSLAVGPQYSSLGSQPILCASIPGLVPKQLRFCRNYVEIMPSVAEGIKIGIQECQHQFRGRRWNCTTVHDSLAIFGPVLDKATRESAFVHAIASAGVAFAVTRSCAEGTAAICGCSSRHQGSPGKGWKWGGCSEDIEFGGMVSREFADARENRPDARSAMNRHNNEAGRQAIASHMHLKCKCHGLSGSCEVKTCWWSQPDFRAIGDFLKDKYDSASEMVVEKHRESRGWVETLRPRYTYFKVPTERDLVYYEASPNFCEPNPETGSFGTRDRTCNVSSHGIDGCDLLCCGRGHNARAERRREKCRCVFHWCCYVSCQECTRVYDVHTCK
- ability of ESCs to reprogram somatic cells after fusion (ESCs): strikingly enhances

B2: IFN-gamma: IFN-gamma, cytokine inducing Klf-4 expression via phosphorylated STAT1 (protein, UniProt P01579 24-161, looked up)
Interferon gamma: QDPYVKEAENLKKYFNAGHSDVADNGTLFLGILKNWKEESDRKIMQSQIVSFYFKLFKNFKDDQSIQKSVETIKEDMNVKFFNSNKKKRDDFEKLTNYSVTDLNVQRKAIHELIQVMAELSPAAKTGKRKRSQMLFRG
- increase of Klf-4 promoter activity (Klf-4 promoter): 3.5 fold
